Measurements taken from patent US20230391766A1, “1-(2-(4-CYCLOPROPYL-1H-1,2,3-TRIAZOL-1-YL)ACETYL)-4-HYDROXY-N-(BENZYL)PYRROLIDIN E-2-CARBOXAMIDE DERIVATIVES AS VHL INHIBITORS FOR THE TREATMENT OF ANEMIA AND CANCER” (Genentech, Inc., priority 2020, published 2023).

Columns and labels:
VHL Elongin B/C complex = target: T1, VHL Elongin B/C complex (Homo sapiens, UniProt P40337); experiment: Fluorescence Polarization (FP) VHL Binding Assay; conditions: fluorescence polarization tracer competition; geometric mean where more than one measurement
T1 construct: amino acids E55-D213 of human VHL with N-terminal His6 tag; His6 (N); TEV-protease cleavage site (N); made in house; host or cells: E. coli
T1 sequence (P40337 55-213): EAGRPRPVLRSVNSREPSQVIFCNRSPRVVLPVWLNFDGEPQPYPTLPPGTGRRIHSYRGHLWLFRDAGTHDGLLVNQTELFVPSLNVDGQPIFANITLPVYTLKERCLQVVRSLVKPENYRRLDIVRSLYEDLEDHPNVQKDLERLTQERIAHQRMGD
T1 sequence (Q15370 whole entry partner, the tested form may be a part): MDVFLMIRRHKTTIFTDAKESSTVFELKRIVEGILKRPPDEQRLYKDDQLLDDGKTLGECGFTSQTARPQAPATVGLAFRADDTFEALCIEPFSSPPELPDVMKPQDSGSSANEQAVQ
T1 sequence (Q15369 17-112 partner limits assumed): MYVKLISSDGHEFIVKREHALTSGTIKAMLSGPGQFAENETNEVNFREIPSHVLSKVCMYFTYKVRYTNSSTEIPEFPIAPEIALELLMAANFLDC
Procedure: The binding of test compounds to the VHL Elongin B/C complex was measured using a fluorescence polarization tracer competition assay. The VHL/Elongin B/C protein complex used in the assay was generated as follows. The coding region for amino acids E55-D213 of human VHL with N-terminal His6 tag with a TEV-protease cleavage site was co-expressed with Elongin B (residues M1-Q118) and Elongin C (Residues M17-C112) in E. coli. The VHL/Elongin B/C complex was purified using an affinity nickel column, anion exchange HiTrap QP HP column chromatography, and gel filtration using a Superdex 75 26/60 column. The purified VHL/Elongin B/C complex was dialyzed into formulation buffer: 20 mM Bis-Tris pH7.0, 150 mM NaCl, 1 mM DTT. A VHL fluorescence polarization probe consisted of a VHL ligand coupled to carboxytetramethylrhodamine (TAMRA); (2S,4R)—N-(2-(2-(3′,6′-bis(dimethylamino)-3-oxo-3H-spiro[isobenzofuran-1,9′-xanthene]-5-carboxamido)ethoxy)-4-(4-methylthiazol-5-yl)benzyl)-4-hydroxy-1-((R)-3-methyl-2-(3-methylisoxazol-5-yl)butanoyl)pyrrolidine-2-carboxamide. […] DMSO was dispensed into wells designated for “VHL control” (without compound) wells. The “Assay Buffer” consisted of 50 mM Tris pH 8.0, 120 mM NaCl, 0.005% Nonidet P-40, and 1% DMSO (v/v). Assay Buffer containing 5.28 μM VHL Elongin B/C complex was prepared and 5 μl dispensed using a BioRapTR (Beckman Coulter) into each well of the assay plate. Assay Buffer was also dispensed into “no VHL control” wells using the same method. A “pre-assay” fluorescence measurement was made using an Infinite® M1000 (Tecan) plate reader (Excitation 530 nm, Emission 574 nm, Bandwidth 10 nm). Assay Buffer containing 3.34 nM of the VHL FP probe was prepared in Assay Buffer and 5 μl dispensed into each well of the assay plate using a BioRapTR (Beckman Coulter). The final VHL/Elongin B/C protein concentration is 2.64 nM and the final probe concentration is 1.67 nM. Assay plates were briefly centrifuged and incubated for 1 hour at room temperature. “Post-assay” fluorescence polarization measurements were made as described for the “pre-assay” fluorescence measurement. Fluorescence polarization was calculated for each sample; taking into account the “pre-assay” fluorescence measurements and subtracting the fluorescence signal of the compound/VHL only (“pre-assay”) measurements from the “post-assay” fluorescence polarization measurements, for each plane of polarization. The data were analyzed using Genedata Screener software and normalized to the “no VHL control” and “VHL control” (without compound). IC50 values were calculated using a four parameter curve fit (Robust method).

VHL [1] = target: T2, VHL (Homo sapiens, UniProt P40337); experiment: VHL HEK-293 BRET Assay (VHL NanoBRET Target Engagement Assay); format: cell-based
T2 construct: expressed in transfected cells
T2 sequence (P40337 whole entry): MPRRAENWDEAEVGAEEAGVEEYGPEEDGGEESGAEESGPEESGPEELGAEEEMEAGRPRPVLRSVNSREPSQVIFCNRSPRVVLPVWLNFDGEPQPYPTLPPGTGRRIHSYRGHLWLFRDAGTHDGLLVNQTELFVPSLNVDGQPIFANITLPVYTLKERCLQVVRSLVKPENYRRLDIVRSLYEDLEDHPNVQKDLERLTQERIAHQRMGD

VHL [2] = target: T2, VHL; experiment: VHL nanoBRET (+ Digitonin); format: cell-based

IC50 (VHL Elongin B/C complex): 150 nM
IC50 (VHL [1]; HEK 293 RT VHL-NanoLuc stable cells, 1 uM tracer, 2 hours, geometric mean where more than one measurement, read-out: VHL binding in cells (HEK293 nanoBRET)): 150 nM
Ratio cell permeability shift (VHL [1]; ratio not defined): 0.97
EC50 (VHL [2]): 140 nM
Compound: CC(C)(C)[C@@H](C(=O)N1C[C@H](O)C[C@H]1C(=O)N[C@H](Cc1ccc(-c2ccccc2)cc1)C(N)=O)n1cc(C2CC2)nn1 [Example S3, (2S,4R)—N—((R)-3-([1,1′-biphenyl]-4-yl)-1-amino-1-oxopropan-2-yl)-1-((S)-2-(4-cyclopropyl-JH-1,2,3-triazol-1-yl)-3,3-dimethylbutanoyl)-4-hydroxypyrrolidine-2-carboxamide]
